Test results from patent US6465654B2, “Process for preparing 1-substituted, 2-substituted 1H-imidazo[4, 5-c]quinoline-4-amines” (3M Innovative Properties Company, priority 1991, dated 2002).

Legend:
[1] = tested on: Herpes simplex virus Type II strain 333; test: Antiviral activity in guinea pigs infected with Herpes simplex virus Type II (lesion inhibition); assay type: in vivo; details: oral once daily for four days, dose 2 mg/kg
Description: Female Hartley guinea pigs weighing 200 to 250 g are anesthetized with methoxyflurane (available under the […] from Pitman-Moore, Inc., Washington Crossing, N.J.), after which the vaginal area is swabbed with a dry cotton swab. The guinea pigs are then infected intravaginally with a cotton swab saturated with Herpes simplex virus Type II strain 333 (1×10^5 plaque forming units/mL). Guinea pigs are assigned to groups of 7 animals; one group for each treatment and one to serve as a control (vehicle treated). The compounds of the invention are formulated in water containing 5% Tween 80 (a polyoxyethylene sorbitan monooleate available from Aldrich Chemical Company, Inc., Milwaukee, Wis.). The, guinea pigs are treated orally once daily for four consecutive days starting 24 hours after infection. Antiviral activity is evaluated by comparing lesion development in compound-treated versus vehicle-treated guinea pigs. […] The maximum lesion score of each guinea pig is used to calculate the percentage lesion inhibition. The percentage lesion inhibition is calculated as follows: […]

interferon-α [2] = test: Interferon-α induction in human cells, PBM; assay type: cell-based; details: 24 hours
interferon = test: Interferon induction in mice; assay type: in vivo; details: mouse serum
Method: One hour later blood samples are withdrawn from the first group. The samples are pooled then centrifuged. The serum is removed from the centrifuge tube, split into two portions, then placed in freezing vials and maintained at −70° C. until analysis. This procedure is repeated at 2 hours with the second group of mice and at 4 hours with the third group of mice. Samples are assayed as described above in connection with the analysis of interferon induction in human cells. The results are expressed in the table below as α/β reference units/mL based on the value obtained for a mouse MU-1-IF standard. Results are shown in the table below wherein results designated as “<” a certain number indicate that interferon was not detectable in amounts above the lower sensitivity level of the assay.

interferon-α [3] = test: Interferon-α induction in human cells, diluted whole blood; assay type: cell-based; details: 24 hours
[4] = tested on: vesicular stomatitis virus (VSV); test: microbe, parasite or virus in culture; assay type: cell-based; details: Vesicular stomatitis virus, read-out: VSV Yield Inhibition

| Compound | Interferon-α induction (interferon-α [2]; dose concentration 0.10 μg/mL) | Interferon-α induction (interferon-α [2]; dose concentration 0.50 μg/mL) | Interferon-α induction (interferon-α [2]; dose concentration 1.0 μg/mL) | Interferon-α induction (interferon-α [2]; dose concentration 5.0 μg/mL) | Interferon induction in mice (interferon; oral 0.3 mg/kg, 1 hr) | Interferon induction in mice (interferon; oral 0.3 mg/kg, 2 hr) | Interferon induction in mice (interferon; oral 0.3 mg/kg, 4 hr) | Interferon induction in mice (interferon; oral 1 mg/kg, 1 hr) | Interferon induction in mice (interferon; oral 1 mg/kg, 2 hr) | Interferon induction in mice (interferon; oral 1 mg/kg, 4 hr) | Interferon induction in mice (interferon; oral 3 mg/kg, 1 hr) | Interferon induction in mice (interferon; oral 3 mg/kg, 2 hr) | Interferon induction in mice (interferon; oral 3 mg/kg, 4 hr) | Interferon induction in mice (interferon; oral 10 mg/kg, 1 hr) | Interferon induction in mice (interferon; oral 10 mg/kg, 2 hr) | Interferon induction in mice (interferon; oral 10 mg/kg, 4 hr) | log reduction at 0.1 µg/mL [4] | log reduction at 0.5 µg/mL [4] | log reduction at 1 µg/mL [4] | other results |
| --- | --- | --- | --- | --- | --- | --- | --- | --- | --- | --- | --- | --- | --- | --- | --- | --- | --- | --- | --- | --- |
| CC(C)Cn1c(CN2CCCC2)nc2c(N)nc3ccccc3c21 [Example 13, 1-(2-Methylpropyl)-2-pyrrolidinomethyl-1H-imidazo[4,5-c]quinolin-4-amine] | <1.9 α Reference Units/mL | 10 α Reference Units/mL | 10 α Reference Units/mL | 4 α Reference Units/mL | <59 Reference Units/mL | ≦130 Reference Units/mL | <59 Reference Units/mL | 130 Reference Units/mL | 530 Reference Units/mL | ≦100 Reference Units/mL | 230 Reference Units/mL | 400 Reference Units/mL | 130 Reference Units/mL | 700 Reference Units/mL | 1200 Reference Units/mL | 400 Reference Units/mL |  |  |  | % Lesion Inhibition [1]: 67% |
| CC(C)Cn1c(C(C)(C)O)nc2c(N)nc3ccccc3c21 [Example 23, 4-Amino-α,α-dimethyl-1-(2-methylpropyl)-1H-imidazo[4,5-c]quinoline-2-methanol] |  |  |  |  |  |  |  |  |  |  |  |  |  |  |  |  |  |  |  | Interferon-α induction (interferon-α [3]; dose concentration 0.10 μg/mL): <1.8 α Reference Units/mL; Interferon-α induction (interferon-α [3]; dose concentration 0.50 μg/mL): <1.8 α Reference Units/mL; Interferon-α induction (interferon-α [3]; dose concentration 1.0 μg/mL): 84 α Reference Units/mL; Interferon-α induction (interferon-α [3]; dose concentration 5.0 μg/mL): 250 α Reference Units/mL; Interferon induction in mice (interferon; oral 30 mg/kg, 1 hr): 1200 Reference Units/mL; Interferon induction in mice (interferon; oral 30 mg/kg, 2 hr): 1200 Reference Units/mL; Interferon induction in mice (interferon; oral 30 mg/kg, 4 hr): 140 Reference Units/mL |
| COC(C)c1nc2c(N)nc3ccccc3c2n1CC(C)C (stereo not drawn) [Example 66, 2-(1-Methoxyethyl)-1-(2-methylpropyl)-1H-imidazo[4,5-c]quinolin-4-amine] | <5 α Reference Units/mL | <5 α Reference Units/mL | 1000 α Reference Units/mL | 1000 α Reference Units/mL | <56 Reference Units/mL | <56 Reference Units/mL | <56 Reference Units/mL | <56 Reference Units/mL | <56 Reference Units/mL | <56 Reference Units/mL | <74 Reference Units/mL | <120 Reference Units/mL | <56 Reference Units/mL | 1100 Reference Units/mL | 2600 Reference Units/mL | 380 Reference Units/mL | 2 | 2 | 3 |  |
| CCOCc1nc2c(N)nc3cc(Cl)ccc3c2n1CC(C)(C)O [Example 85, 4-Amino-7-chloro-α,α-dimethyl-2-ethoxymethyl-1H-imidazo[4,5-c]quinoline-1-ethanol] | 86 α Reference Units/mL | 100 α Reference Units/mL | 220 α Reference Units/mL | 230 α Reference Units/mL | 670 Reference Units/mL | 670 Reference Units/mL | <250 Reference Units/mL | ˜980 Reference Units/mL | 3900 Reference Units/mL | ≦330 Reference Units/mL | 1500 Reference Units/mL | 4300 Reference Units/mL | ˜430 Reference Units/mL | 2200 Reference Units/mL | 5700 Reference Units/mL | ˜570 Reference Units/mL | 5 | 5 | 5 |  |
| CC(C)(O)Cn1c(CO)nc2c(N)nc3ccccc3c21 [Example 90, 4-Amino-α,α-dimethyl-2-hydroxymethyl-1H-imidazo[4,5-c]quinoline-1-ethanol] | 3000 α Reference Units/mL | 640 α Reference Units/mL | 420 α Reference Units/mL | 580 α Reference Units/mL | <74 Reference Units/mL | <74 Reference Units/mL | <74 Reference Units/mL | <74 Reference Units/mL | <74 Reference Units/mL | <74 Reference Units/mL | ≦130 Reference Units/mL | 570 Reference Units/mL | ≦74 Reference Units/mL | 750 Reference Units/mL | 3500 Reference Units/mL | ≦140 Reference Units/mL | 5 | 4 | 5 | Interferon-α induction (interferon-α [2]; dose concentration 0.01 μg/mL): <6.4 α Reference Units/mL; Interferon-α induction (interferon-α [2]; dose concentration 0.05 μg/mL): 640 α Reference Units/mL |
| CCOCc1nc2c(N)nc3ccccc3c2n1Cc1ccccc1 [Example 93, 2-Ethoxymethyl-1-phenylmethyl-1H-imidazo[4,5-c]quinolin-4-amine] | 850 α Reference Units/mL | 280 α Reference Units/mL | 300 α Reference Units/mL | 300 α Reference Units/mL | 400 Reference Units/mL | 360 Reference Units/mL | ≦150 Reference Units/mL | 660 Reference Units/mL | 1500 Reference Units/mL | 340 Reference Units/mL | 1300 Reference Units/mL | 1300 Reference Units/mL | ˜260 Reference Units/mL | 2100 Reference Units/mL | 2900 Reference Units/mL | 630 Reference Units/mL | 0 | 5 | 5 |  |
| COCc1nc2c(N)nc3ccccc3c2n1CC(C)(C)O [Example 96, 4-Amino-α,α-dimethyl-2-methoxymethyl-1H-imidazo[4,5-c]quinoline-1-ethanol] | 1200 α Reference Units/mL | 460 α Reference Units/mL | 1000 α Reference Units/mL | 900 α Reference Units/mL | 2900 Reference Units/mL | 3400 Reference Units/mL | 620 Reference Units/mL | 3200 Reference Units/mL | 5000 Reference Units/mL | 1100 Reference Units/mL | 3000 Reference Units/mL | 10000 Reference Units/mL | 960 Reference Units/mL | 2900 Reference Units/mL | 4700 Reference Units/mL | ˜350 Reference Units/mL | 6 | 5 | 5 | Interferon-α induction (interferon-α [2]; dose concentration 0.01 μg/mL): <6.4 α Reference Units/mL; Interferon-α induction (interferon-α [2]; dose concentration 0.05 μg/mL): 44 α Reference Units/mL |
